Test [1] concerns cells. The test is described as follows: Cell proliferation / viability GI50 (MTS assay or ATP quantitation assay). Format: cell-based. The following applies: 72 hours treatment; cell line and assay (MTS or ATP quantitation) not stated. How it is done:
Cell proliferation analysis. Cell survival was determined by the MTS assay. Briefly, cells were plated in a 96-well plate at 2,000-10,000 cells per well, cultured for 24 hours in complete growth medium, and then treated with various drugs and drug combinations for 72 hours. MTS was added and incubated for 4 hour, followed by assessment of cell viability using the microplate reader at 570 nm. Data were normalized to untreated controls and analyzed with Microsoft Excel.
Cell viability analysis. Cell viability was determined by the ATP quantitation assay. Briefly, cells were plated in a 96-well plate at 2,000-10,000 cells per well, cultured for 24 hours in complete growth medium, and then treated with various drugs or combination of drugs for 72 hours. CellTiter-Glo® reagent was added and incubated at room temperature for 10 minutes, followed by assessment of cell viability using a luminometer. Data were normalized to untreated controls and analyzed with Microsoft Excel.
A general note: Tetrazolium assays rely on reduction of a dye to a coloured formazan, in cell work by metabolically active cells.

Test [2] concerns Phospho-Akt (S473). The test is described as follows: Cell ELISA Assay, Phospho-Akt detection. The following applies: cells treated for 1 hour, cell line not stated. Format: cell-based. How it is done: Phospho-Akt detection analysis. Phospho-Akt (S473) was detected using cell ELISA. Briefly, cells were plated in a 96-well plate at 7,000-10,000 cells per well, cultured for 2-3 days in complete growth medium, and then treated with various drugs or combinations of drugs for 1 hour. The cells were fixed with ice-cold methanol, and washed with TBS supplemented with 1% H2O2. Phospho-Akt (S473) was probed with corresponding rabbit antibody as a primary antibody, and horseradish peroxidase conjugated goat anti-rabbit IgG. After treatment with SuperSignal® ELISA for 15 minutes, the detection was performed using a luminometer. Data were normalized to untreated controls and analyzed with Microsoft Excel.
For orientation: In an ELISA, binding on a coated surface is turned into a signal by an enzyme label.

In test [3] the target is T1, Full-length inactive AKT1 (Homo sapiens (Human), UniProt P31749). The test can be described thus: Thermal Shift Assay (protein-ligand binding). To be noted: Kd at 25° C. calculated using constant ligand binding enthalpy −15 kcal/mol; 15 μM compound, ANS dye. On the procedure:
Binding analysis. Protein-ligand binding was identified with the thermal shift assay which is based on the ligand-induced stabilization of the protein tertiary structure. The thermal stability of the ligand-Akt1 complex was assessed by subjecting the complex to a set temperature gradient and by comparison of the meltion temperature of the Akt1-ligand complex with the melting temperature of the protein alone. Protein unfolding was monitored by the fluorescence readout of an environmentally sensitive fluorescent dye, 1-anilinonaphthalene-8-sulfonic acid (ANS). […] The PCR plate was placed into a RT-PCR instrument and a temperature gradient was performed, increasing from 27 to 80° C., at 1° C./30 sec heat rate with a dwell time of 20 sec. The change in ANS fluorescence was measured using the filter set of 475 nm/525 nm excitation/emission.

The target of test [4] is T1, Full-length inactive AKT1. The test can be described thus: Inactive Akt Alpha Screen Assay. To be noted: 8 nM inactive Akt1 activated by PDK1 and MAPKAPK2, lipid vesicles, 50 μM ATP, biotinylated crosstide; read-out: Akt1 biochemical assay IC50 AlphaScreen crosstide. On the procedure: AKT1 activity was assayed using the GSK3-derived biotinylated peptide substrate, crosstide (biotin-[…]), and AlphaScreen™ (Amplified Luminescent Proximity Homogeneous Assay) technology. AKT1 activation was achieved by the addition of the activating kinases PDK1 and MAPKAPK2, lipid vesicles, and ATP. The extent of peptide phosphorylation was determined using a phospho-AKT substrate antibody and acceptor beads conjugated to Protein A and donor beads conjugated to streptavidin that bind to the biotin on the peptide. Excitation of the donor beads converted ambient oxygen to excited singlet oxygen which, when in close proximity to acceptor beads, reacted with acceptor beads resulting in signal amplification.
After a 20 minute pre-incubation at room temperature, the kinase reaction was initiated by the addition of 5 μL of an activation mixture diluted in assay buffer containing biotinylated crosstide, PDK1, MAPKAPK2, DOPS/DOPC, PtdIns(3,4,5)P3, and ATP for final concentrations of 60 nM biotinylated crosstide, 0.1 nM PDK1, 0.7 nM MK2, 5.5 μM DOPS, 5.5 μM DOPC, 0.5 μM PtdIns(3,4,5)P3, and 50 μM ATP. The plates were incubated for 30 minutes at room temperature, and then stopped in the dark by the addition of 10 μL stop/detection mixture prepared in assay buffer containing EDTA, AlphaScreen™ Streptavidin Donor and Protein A Acceptor beads, and phospho-AKT substrate antibody for final concentrations of 10 mM EDTA, 500 ng/well of both AlphaScreen™ Streptavidin Donor beads and Protein A Acceptor beads, and phospho-AKT substrate antibody at a final dilution of 1:350. Assay plates were incubated for 90 minutes at room temperature in the dark, and the plates were read on a Perkin Elmer Envision Multilabel plate reader (excitation wavelength: 640 nm, emission wavelength: 570 nm). […]
For orientation: In Alpha technology, singlet oxygen from a donor bead excites a nearby acceptor bead.

T1 sequence (P31749 whole entry): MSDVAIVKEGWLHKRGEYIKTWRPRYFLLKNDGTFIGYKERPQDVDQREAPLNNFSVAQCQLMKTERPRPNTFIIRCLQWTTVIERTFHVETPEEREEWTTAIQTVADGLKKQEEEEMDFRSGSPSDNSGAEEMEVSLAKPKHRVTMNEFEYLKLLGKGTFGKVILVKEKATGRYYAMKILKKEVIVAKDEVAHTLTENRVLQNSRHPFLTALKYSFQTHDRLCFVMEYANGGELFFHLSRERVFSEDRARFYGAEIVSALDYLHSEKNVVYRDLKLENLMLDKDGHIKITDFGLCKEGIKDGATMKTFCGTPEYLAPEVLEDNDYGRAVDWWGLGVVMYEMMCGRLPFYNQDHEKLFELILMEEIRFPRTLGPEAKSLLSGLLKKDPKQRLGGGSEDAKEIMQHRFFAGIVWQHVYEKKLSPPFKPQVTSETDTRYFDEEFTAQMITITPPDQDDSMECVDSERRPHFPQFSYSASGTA

A word on the GI50: it is the concentration giving 50% growth inhibition. Usually IC50 stands for the concentration that gives 50% inhibition. For `C[C@@H](O)CNC(=O)c1cccc(-c2ccc3nc(-c4cccnc4N)n(-c4ccc(C5(N)CCC5)cc4)c3n2)c1` [Cmpd 8, (R)-3-(3-(4-(1-aminocyclobutyl)phenyl)-2-(2-aminopyridin-3-yl)-3H-imidazo[4,5-b]pyridin-5-yl)-N-(2-hydroxypropyl)benzamide], the GI50 in test [1] was determined as 1350 µM. In addition, in test [2], the IC50 amounted to 8 nM.
Broadly, the Kd is the equilibrium constant for the complex coming apart. For `CCN(CC)C(=O)C1CCN(c2cccc(-c3ccc4nc(-c5cccnc5N)n(-c5ccc(C6(N)CCC6)cc5)c4n3)c2)CC1` [Cmpd 10, 1-(3-(3-(4-(1-aminocyclobutyl)phenyl)-2-(2-aminopyridin-3-yl)-3H-imidazo[4,5-b]pyridin-5-yl)phenyl)-N,N-diethylpiperidine-4-carboxamide], the dissociation constant Kd in test [3] was 0.2 nM. In addition, the results for the half-maximal inhibitory concentration (IC50) in test [2] and in test [4] were 3 nM and 4.15 nM, respectively.
In the case of `Nc1ncccc1-c1nc2ccc(-c3cccc(N4CCN(C(=O)C5CC5)CC4)c3)nc2n1-c1ccc(C2(N)CCC2)cc1` [Cmpd 14, (4-(3-(3-(4-(1-aminocyclobutyl)phenyl)-2-(2-aminopyridin-3-yl)-3H-imidazo[4,5-b]pyridin-5-yl)phenyl)piperazin-1-yl)(cyclopropyl)methanone], the Kd in test [3] is 1.1 nM. Moreover, in test [1], the concentration for 50% growth inhibition (GI50) was 296 µM. Besides, the results for the IC50 in test [2] and in test [4] were 11 nM and 1.84 nM, respectively.
`C[C@H](O)CNC(=O)c1cccc(-c2ccc3nc(-c4cccnc4N)n(-c4ccc(C5(N)CCC5)cc4)c3n2)c1` [Cmpd 7, (S)-3-(3-(4-(1-aminocyclobutyl)phenyl)-2-(2-aminopyridin-3-yl)-3H-imidazo[4,5-b]pyridin-5-yl)-N-(2-hydroxypropyl)benzamide]: the GI50 in test [1] stood at 836 µM. Further, the IC50 in test [2] came out at 12 nM.
For the compound `CC(C)(C)C(=O)Nc1cccc(-c2ccc3nc(-c4cccnc4N)n(-c4ccc(C5(N)CCC5)cc4)c3n2)c1` [Cmpd 4, N-(3-(3-(4-(1-aminocyclobutyl)phenyl)-2-(2-aminopyridin-3-yl)-3H-imidazo[4,5-b]pyridin-5-yl)phenyl)pivalamide], the Kd in test [3] is 0.4 nM. Besides, in test [1], the GI50 was 265 µM. Moreover, the half-inhibitory concentration (IC50) was found to be 17 nM in test [2] and 1.7 nM in test [4].
With `CC(C)(C)C(=O)N1CCN(c2cccc(-c3ccc4nc(-c5cccnc5N)n(-c5ccc(C6(N)CCC6)cc5)c4n3)c2)CC1` [Cmpd 16, 1-(4-(3-(3-(4-(1-aminocyclobutyl)phenyl)-2-(2-aminopyridin-3-yl)-3H-imidazo[4,5-b]pyridin-5-yl)phenyl)piperazin-1-yl)-2,2-dimethylpropan-1-one], in test [3], the dissociation constant Kd is 1.7 nM. Also, the IC50 in test [4] came out at 3.42 nM.
Take `Nc1ncccc1-c1nc2ccc(N3CCOCC3)nc2n1-c1ccc(C2(N)CCC2)cc1` [Cmpd 1, 3-(3-(4-(1-aminocyclobutyl)phenyl)-5-morpholino-3H-imidazo[4,5-b]pyridin-2-yl)pyridin-2-amine]: the IC50 in test [2] came out at 235 nM.
Take `C[C@@H]1CN(c2cccc(-c3ccc4nc(-c5cccnc5N)n(-c5ccc(C6(N)CCC6)cc5)c4n3)c2)C[C@H](C)O1` [Cmpd 17, 3-(3-(4-(1-aminocyclobutyl)phenyl)-5-(3-((2S,6R)-2,6-dimethylmorpholino)phenyl)-3H-imidazo[4,5-b]pyridin-2-yl)pyridin-2-amine]: the Kd in test [3] was 3.1 nM. Besides, the IC50 in test [4] was found to be 4.36 nM.
Turning to `Nc1ncccc1-c1nc2ccc(Oc3ccccc3)nc2n1-c1ccc(C2(N)CCC2)cc1` [Cmpd 22, 3-(3-(4-(1-aminocyclobutyl)phenyl)-5-phenoxy-3H-imidazo[4,5-b]pyridin-2-yl)pyridin-2-amine], the Kd in test [3] was 83.1 nM.
Regarding `CC(=O)OC(C)(C)C(=O)Nc1cccc(-c2ccc3nc(-c4cccnc4N)n(-c4ccc(C5(N)CCC5)cc4)c3n2)c1` [Cmpd 5, 1-((3-(3-(4-(1-aminocyclobutyl)phenyl)-2-(2-aminopyridin-3-yl)-3H-imidazo[4,5-b]pyridin-5-yl)phenyl)amino)-2-methyl-1-oxopropan-2-yl acetate], in test [3], the Kd is 0.7 nM. In addition, the IC50 in test [4] is 4.46 nM.
Regarding `CN(C)C(=O)C1CCN(c2cccc(-c3ccc4nc(-c5cccnc5N)n(-c5ccc(C6(N)CCC6)cc5)c4n3)c2)CC1` [Cmpd 9, 1-(3-(3-(4-(1-aminocyclobutyl)phenyl)-2-(2-aminopyridin-3-yl)-3H-imidazo[4,5-b]pyridin-5-yl)phenyl)-N,N-dimethylpiperidine-4-carboxamide], the Kd in test [3] was 0.2 nM. For the same compound, the IC50 is 2.1 nM in test [2] and 2.51 nM in test [4].
For `CC(C)(O)C(=O)Nc1cccc(-c2ccc3nc(-c4cccnc4N)n(-c4ccc(C5(N)CCC5)cc4)c3n2)c1` [Cmpd 6, N-(3-(3-(4-(1-aminocyclobutyl)phenyl)-2-(2-aminopyridin-3-yl)-3H-imidazo[4,5-b]pyridin-5-yl)phenyl)-2-hydroxy-2-methylpropanamide], the Kd in test [3] is 1.4 nM. For the same compound, the IC50 in test [4] came to 1.63 nM.
For `Nc1ncccc1-c1nc2ccc(Nc3ccc(N4CCOCC4)cc3)nc2n1-c1ccc(C2(N)CCC2)cc1` [Cmpd 20, 3-(4-(1-aminocyclobutyl)phenyl)-2-(2-aminopyridin-3-yl)-N-(4-morpholinophenyl)-3H-imidazo[4,5-b]pyridin-5-amine], the Kd in test [3] is 57.3 nM. Also, the half-inhibitory concentration (IC50) worked out at 414 nM in test [2] and 8.72 nM in test [4].
As for `Nc1ncccc1-c1nc2ccc(-c3cccc(N4CCS(=O)(=O)CC4)c3)nc2n1-c1ccc(C2(N)CCC2)cc1` [Cmpd 18, 4-(3-(3-(4-(1-aminocyclobutyl)phenyl)-2-(2-aminopyridin-3-yl)-3H-imidazo[4,5-b]pyridin-5-yl)phenyl)thiomorpholine 1,1-dioxide], the Kd in test [3] was 0.8 nM. In test [4], the IC50 came to 1.79 nM.
As to `Nc1ncccc1-c1nc2ccc(Sc3ccccc3)nc2n1-c1ccc(C2(N)CCC2)cc1` [Cmpd 21, 3-(3-(4-(1-aminocyclobutyl)phenyl)-5-(phenylthio)-3H-imidazo[4,5-b]pyridin-2-yl)pyridin-2-amine], the Kd in test [3] is 110 nM. Moreover, in test [2], the half-maximal inhibitory concentration (IC50) turned out to be 605 nM.
As to `Nc1ncccc1-c1nc2ccc(Nc3ccccc3)nc2n1-c1ccc(C2(N)CCC2)cc1` [Cmpd 19, 3-(4-(1-aminocyclobutyl)phenyl)-2-(2-aminopyridin-3-yl)-N-phenyl-3H-imidazo[4,5-b]pyridin-5-amine], in test [1], the GI50 came out at 1420 µM. Moreover, the IC50 was determined as 60 nM in test [2] and 3.77 nM in test [4].
Regarding `Nc1ncccc1-c1nc2ccc(-c3cccc(N4CCC(C(=O)N5CCOCC5)CC4)c3)nc2n1-c1ccc(C2(N)CCC2)cc1` [Cmpd 11, (1-(3-(3-(4-(1-aminocyclobutyl)phenyl)-2-(2-aminopyridin-3-yl)-3H-imidazo[4,5-b]pyridin-5-yl)phenyl)piperidin-4-yl)(morpholino)methanone], in test [3], the dissociation constant Kd was 0.2 nM. For the same compound, the concentration for half-maximal inhibition (IC50) amounted to 1.7 nM in test [2] and 3.36 nM in test [4].
For `CC(C)C(=O)N1CCN(c2cccc(-c3ccc4nc(-c5cccnc5N)n(-c5ccc(C6(N)CCC6)cc5)c4n3)c2)CC1` [Cmpd 15, 1-(4-(3-(3-(4-(1-aminocyclobutyl)phenyl)-2-(2-aminopyridin-3-yl)-3H-imidazo[4,5-b]pyridin-5-yl)phenyl)piperazin-1-yl)-2-methylpropan-1-one], in test [3], the Kd was 1.1 nM. Further, the IC50 in test [2] was 4 nM.
